Assay results taken from patent US20030138816A1, “Methods and kits for diagnosing the occurrence or the phase of minimal change nephrotic syndrome (MCNS) in a human” (INSTITUT NATIONAL DE LA SANTE ET DE LA RECHERCHE MEDICALE, priority 2001, published 2003).
Residues, ends and D or L forms follow the SMILES beside them. *: point of attachment. Cbz = O=C(OCc1ccccc1)*

How the values were obtained:
[1] = tested on: patient with Minimal Change Nephrotic Syndrome; assay: Prednisone treatment of the patient selected for the subtractive library (onset of nephrotic syndrome, MCNS); assay type: in vivo, human; conditions: one patient, prednisone 1 mg/kg/day for four weeks, then tapered
[2] = tested on: PBMC from relapse; assay: Incubation of PBMCs with the proteasome inhibitor MG132, c-maf protein in protein extracts; assay type: cell-based, human; conditions: co culture of PBMC from MCNS relapse with MG132, 10 μM, overnight
Procedure: 5) Quantification of IL4 mRNA by quantitative RT-PCR. Quantitative PCR was performed using the Light Cycler (Roche Molecular Biochemical). The samples (2 μl of the RT reaction, corresponding to 20 ng of total RNA) were amplified in a 20 μl reaction mixture containing […] each primer, and 1×mix LightCycler-DNA master SYBR Green buffer (Roche Molecular Biochemical). Carry-over was prevented by using dUTP instead of dTTP, and heat-labile Uracil DNA glyco-sylase (UDG). A standard curve was made using dilution of the RNA prepared from pUc9-IL4 plasmid. The PCR reaction was started by a denaturation at 95° C. for 2 min followed by 40 three step cycles (95° C.: 1 sec, 60° C.: 10 sec, and 72° C.: 24 sec). The relative value for each sample was calculated using the LightCycler analysis software. 6) Electromobility shift assays (EMSA), immunoprecipitations and Western blottings: Cytosolic and nuclear protein preparations as well as EMSA were performed as previously described (34). […] The subunit composition of DNA-protein complexes containing c-Maf was determined by preincubation of nuclear extracts with 1 μg of polyclonal antibodies raised against c-Maf (sc-7866), c-Fos (sc-7202), and c-Jun (sc-1694), (Santa Cruz, Biotechnology), before the addition of the probe. […] Band shifts were quantified using the ImageQuant V1.11 analysis software. […]

| SMILES | remission of nephrotic syndrome [1] | effect on L/c-maf protein (long form) [2] | effect on S/c-maf protein (short form) [2] |
| --- | --- | --- | --- |
| C[C@]12C=CC(=O)C=C1CC[C@@H]1[C@@H]2C(=O)C[C@@]2(C)[C@H]1CC[C@]2(O)C(=O)CO [prednisone] | Complete remission was obtained within ten days |  |  |
| CC(C)C[C@@H](C=O)NC(=O)[C@H](CC(C)C)NC(=O)[C@H](CC(C)C)NC(=O)OCc1ccccc1 [MG132, carbobenzoxyl-leucinyl-leucinyl-leucinal-H] (Cbz-Leu-Leu-Leu-aldehyde) |  | no evident change | induces a sequestration of S/c-maf protein |
